Key:
Assay type in all cases: biochemical
[1] = target: T1, B-Raf (Homo sapiens, UniProt P15056); test: AlphaScreen kinase assay, B-Raf; details: read-out: IC50, activity toward kinase B-Raf
T1 construct: purchased Upstate Biotechnology

[2] = target: T2, B-Raf V600E (Homo sapiens, UniProt P15056, V600E); test: AlphaScreen kinase assay, B-Raf V600E; details: read-out: IC50, activity toward kinase B-Raf V600E
T2 construct: P4254. pFastBacBD-CDC37 BRAF D437-K722-X, V600E; His6 with pFastBac HT leader (TEV site) (N); made in house; host or cells: Sf9 (baculovirus; chaperone CDC37 co-expressed)

[3] = target: T3, Fms (Homo sapiens, UniProt P07333); test: AlphaScreen kinase assay, Fms; details: read-out: IC50, activity toward kinase Fms
T3 construct: purchased Upstate Biotechnology

[4] = target: T4, FGFR1 (Homo sapiens, UniProt P11362, C488A/C584S); test: AlphaScreen kinase assay, FGFR1; details: read-out: IC50, activity toward kinase FGFR
T4 construct: P1351.pET N6 BI-PTP FGFR A458-E765-X C488A, C584S; made in house; host or cells: E. coli (PTP1B co-expressed)

Measured: IC50

T3 sequence (P07333 20-972): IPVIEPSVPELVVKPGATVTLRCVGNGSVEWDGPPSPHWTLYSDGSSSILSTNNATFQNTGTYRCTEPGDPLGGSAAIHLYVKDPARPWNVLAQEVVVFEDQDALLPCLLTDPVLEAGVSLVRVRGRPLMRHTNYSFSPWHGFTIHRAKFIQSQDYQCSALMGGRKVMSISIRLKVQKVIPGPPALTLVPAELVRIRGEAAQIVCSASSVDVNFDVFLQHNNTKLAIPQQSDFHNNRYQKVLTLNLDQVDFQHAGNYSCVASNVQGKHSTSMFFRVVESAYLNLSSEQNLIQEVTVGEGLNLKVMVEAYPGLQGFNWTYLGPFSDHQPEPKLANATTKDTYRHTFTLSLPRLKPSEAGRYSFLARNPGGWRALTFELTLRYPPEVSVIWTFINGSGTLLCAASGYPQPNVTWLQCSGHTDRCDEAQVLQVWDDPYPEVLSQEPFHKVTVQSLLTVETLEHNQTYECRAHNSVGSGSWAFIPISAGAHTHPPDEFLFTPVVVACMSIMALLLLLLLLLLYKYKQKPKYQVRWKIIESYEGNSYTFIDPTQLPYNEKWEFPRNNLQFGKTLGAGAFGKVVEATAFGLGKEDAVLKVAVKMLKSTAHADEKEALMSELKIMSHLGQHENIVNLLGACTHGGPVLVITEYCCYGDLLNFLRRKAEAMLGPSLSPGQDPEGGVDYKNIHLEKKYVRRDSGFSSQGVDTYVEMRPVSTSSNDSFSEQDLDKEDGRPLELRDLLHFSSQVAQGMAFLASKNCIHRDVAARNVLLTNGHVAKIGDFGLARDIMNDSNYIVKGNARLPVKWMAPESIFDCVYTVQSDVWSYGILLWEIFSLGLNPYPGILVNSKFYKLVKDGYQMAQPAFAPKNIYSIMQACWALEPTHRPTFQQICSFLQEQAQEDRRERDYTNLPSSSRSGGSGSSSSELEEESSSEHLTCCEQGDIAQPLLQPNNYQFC
T1 sequence (P15056 whole entry): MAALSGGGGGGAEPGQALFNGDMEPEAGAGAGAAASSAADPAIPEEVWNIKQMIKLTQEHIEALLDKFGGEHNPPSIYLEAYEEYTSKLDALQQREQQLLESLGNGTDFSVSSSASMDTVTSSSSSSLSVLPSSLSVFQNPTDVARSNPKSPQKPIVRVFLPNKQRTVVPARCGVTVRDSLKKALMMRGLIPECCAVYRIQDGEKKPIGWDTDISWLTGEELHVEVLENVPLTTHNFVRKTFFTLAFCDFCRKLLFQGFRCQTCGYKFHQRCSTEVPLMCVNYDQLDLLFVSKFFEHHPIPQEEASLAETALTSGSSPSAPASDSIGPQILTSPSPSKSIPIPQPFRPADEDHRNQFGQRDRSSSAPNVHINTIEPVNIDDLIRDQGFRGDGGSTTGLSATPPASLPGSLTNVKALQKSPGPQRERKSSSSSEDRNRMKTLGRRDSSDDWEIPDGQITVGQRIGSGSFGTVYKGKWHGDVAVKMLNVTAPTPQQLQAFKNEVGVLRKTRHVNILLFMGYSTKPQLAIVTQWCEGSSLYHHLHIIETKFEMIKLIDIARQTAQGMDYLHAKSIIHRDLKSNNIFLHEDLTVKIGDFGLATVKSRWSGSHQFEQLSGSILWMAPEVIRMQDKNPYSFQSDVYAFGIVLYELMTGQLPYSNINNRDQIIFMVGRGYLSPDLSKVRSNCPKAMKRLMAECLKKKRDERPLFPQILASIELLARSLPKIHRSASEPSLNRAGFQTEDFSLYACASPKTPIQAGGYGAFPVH
T2 sequence (P15056 with tags, fused parts or gaps V600E): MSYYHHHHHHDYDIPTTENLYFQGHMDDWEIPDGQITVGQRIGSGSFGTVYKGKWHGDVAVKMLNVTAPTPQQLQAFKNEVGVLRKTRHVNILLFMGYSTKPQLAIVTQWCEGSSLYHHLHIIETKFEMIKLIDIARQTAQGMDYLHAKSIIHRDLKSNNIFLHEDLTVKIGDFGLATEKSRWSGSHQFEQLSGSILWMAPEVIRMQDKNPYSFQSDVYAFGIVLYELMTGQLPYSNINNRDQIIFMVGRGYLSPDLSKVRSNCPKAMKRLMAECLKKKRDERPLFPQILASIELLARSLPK
T4 sequence (P11362 458-765 C488A/C584S): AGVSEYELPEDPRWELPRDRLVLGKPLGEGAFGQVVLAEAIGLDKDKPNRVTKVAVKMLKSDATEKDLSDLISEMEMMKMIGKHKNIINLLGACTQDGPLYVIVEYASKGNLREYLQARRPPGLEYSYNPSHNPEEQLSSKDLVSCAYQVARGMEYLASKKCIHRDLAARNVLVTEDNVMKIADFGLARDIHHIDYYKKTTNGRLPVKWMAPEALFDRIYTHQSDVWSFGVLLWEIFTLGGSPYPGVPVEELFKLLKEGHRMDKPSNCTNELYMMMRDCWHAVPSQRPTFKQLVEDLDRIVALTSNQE

COc1ccc(NC(=O)Nc2cccc(C(=O)c3c[nH]c4ncc(Cl)cc34)c2)cn1 [Compound P-1774, 1-[3-(5-Chloro-1H-pyrrolo[2,3-b]pyridine-3-carbonyl)-phenyl]-3-(6-methoxy-pyridin-3-yl)-urea]
≤ 10 µM: [1] | [2] | [3]

O=C(c1cccc(NS(=O)(=O)c2ccc(C(F)(F)F)cc2)c1)c1c[nH]c2ncccc12 [Compound P-1784]
≤ 10 µM: [1] | [2] | [3]

COc1ccc(-c2cnc3[nH]cc(C(=O)c4c(F)ccc(NS(=O)(=O)c5cccc(F)c5)c4F)c3c2)cn1 [Compound P-2012, N-{2,4-Difluoro-3-[5-(6-methoxy-pyridin-3-yl)-1H-pyrrolo[2,3-b]pyridine-3-carbonyl]-phenyl}-3-fluoro-benzenesulfonamide]
≤ 10 µM: [1] | [2] | [3]

COCCNC(=O)Nc1cccc(C(=O)c2c[nH]c3ncc(Cl)cc23)c1 [Compound P-1772, 1-[3-(5-Chloro-1H-pyrrolo[2 3-b]pyridine-3-carbonyl)-phenyl]-3-(2-methoxy-ethyl)-urea]
≤ 10 µM: [1] | [2] | [3]

O=C(Nc1ccc(C(F)(F)F)cc1)Nc1cccc(C(=O)c2c[nH]c3ncccc23)c1 [Compound P-1717, 1-[3-(1H-Pyrrolo[2,3-b]pyridine-3-carbonyl)-phenyl]-3-(4-trifluoromethyl-phenyl)-urea]
≤ 10 µM: [1] | [2] | [3]

O=C(c1cc(NS(=O)(=O)c2cccc(F)c2)ccc1F)c1c[nH]c2ncc(Cl)cc12 [Compound P-1665]
≤ 10 µM: [1] | [2] | [3]

CCCCOc1ccc(NC(=O)Nc2cccc(C(=O)c3c[nH]c4ncc(Cl)cc34)c2)cc1 [Compound P-1741, 1-(4-Butoxy-phenyl)-3-[3-(5-chloro-1H-pyrrolo[2,3-b]pyridine-3-carbonyl)-phenyl]-urea]
≤ 10 µM: [1] | [2] | [3]

COc1ccc(NC(=O)Nc2cccc(C(=O)c3c[nH]c4ncc(-c5ccc(F)cc5)cc34)c2)cc1OC [Compound P-1818, 1-(3,4-Dimethoxy-phenyl)-3-{3-[5-(4-fluoro-phenyl)-1H-pyrrolo[2,3-b]pyridine-3-carbonyl]-phenyl}-urea]
≤ 10 µM: [1] | [2] | [3]

O=C(c1c(F)ccc(NS(=O)(=O)c2ccc(-c3ccccn3)s2)c1F)c1c[nH]c2ncc(Cl)cc12 [Compound P-1800, 5-Pyridin-2-yl-thiophene-2-sulfonic acid [3-(5-chloro-1H-pyrrolo[2,3-b]pyridine-3-carbonyl)-2,4-difluoro-phenyl]-amide]
≤ 10 µM: [1] | [2] | [3]

O=C(Nc1cccnc1)Nc1cccc(C(=O)c2c[nH]c3ncc(Cl)cc23)c1 [Compound P-1771, 1-[3-(5-Chloro-1H-pyrrolo[2,3-b]pyridine-3-carbonyl)-phenyl]-3-pyridin-3-yl-urea]
≤ 10 µM: [1] | [2] | [3]

O=C(Nc1cccc(C(=O)c2c[nH]c3ncc(Cl)cc23)c1)Nc1cccc(C(F)(F)F)c1 [Compound P-1747, 1-[3-(5-Chloro-1H-pyrrolo[2,3-b]pyridine-3-carbonyl)-phenyl]-3-(3-trifluoromethyl-phenyl)-urea]
≤ 10 µM: [1] | [2] | [3]

O=C(Nc1cccc(Cl)c1)Nc1cccc(C(=O)c2c[nH]c3ncccc23)c1 [Compound P-1710, 1-(3-Chloro-phenyl)-3-[3-(1H-pyrrolo[2,3-b]pyridine-3-carbonyl)-phenyl]-urea]
≤ 10 µM: [1] | [2] | [3]

COc1cc(NC(=O)Nc2cccc(C(=O)c3c[nH]c4ncc(Cl)cc34)c2)cc(C(F)(F)F)c1 [Compound P-1773, 1-[3-(5-Chloro-1H-pyrrolo[2,3-b]pyridine-3-carbonyl)-phenyl]-3-(3-methoxy-5-trifluoromethyl-phenyl)-urea]
≤ 10 µM: [1] | [2] | [3]

O=C(c1c(F)ccc(NS(=O)(=O)c2ccc(OC(F)F)cc2)c1F)c1c[nH]c2ncc(Cl)cc12 [Compound P-1916, N-[3-(5-Chloro-1H-pyrrolo[2,3-b]pyridine-3-carbonyl)-2,4-difluoro-phenyl]-4-difluoromethoxy-benzenesulfonamide]
≤ 10 µM: [1] | [2] | [3]

O=C(c1cc(NS(=O)(=O)c2cccc(F)c2)ccc1Cl)c1c[nH]c2ncc(Cl)cc12 [Compound P-1663]
≤ 10 µM: [1] | [2] | [3]

O=C(Nc1cccc(Cl)c1)Nc1cccc(C(=O)c2c[nH]c3ncc(-c4cccnc4)cc23)c1 [Compound P-1726, 1-(3-Chloro-phenyl)-3-[3-(5-pyridin-3-yl-1H-pyrrolo[2,3-b]pyridine-3-carbonyl)-phenyl]-urea]
≤ 10 µM: [1] | [2] | [3]

O=C(Nc1cccc(Cl)c1)Nc1cccc(C(=O)c2c[nH]c3ncc(Cl)cc23)c1 [Compound P-1736, 1-(3-Chloro-phenyl)-3-[3-(5-chloro-1H-pyrrolo[2,3-b]pyridine-3-carbonyl)-phenyl]-urea]
≤ 10 µM: [1] | [2] | [3]

O=C(c1c(F)ccc(NS(=O)(=O)c2ccccc2F)c1F)c1c[nH]c2ncc(Cl)cc12 [Compound P-1912, N-[3-(5-Chloro-1H-pyrrolo[2,3-b]pyridine-3-carbonyl)-2,4-difluoro-phenyl]-2-fluoro-benzenesulfonamide]
≤ 10 µM: [1] | [2] | [3]

O=C(c1ccc(F)cc1F)c1c[nH]c2ncc(-c3cccnc3)cc12 [Compound P-1555]
≤ 10 µM: [4] | [1] | [3]

COCCOc1cnc2[nH]cc(C(=O)c3c(F)ccc(NS(=O)(=O)c4ccc(C(F)(F)F)cc4)c3F)c2c1 [Compound P-2005, N-{2,4-Difluoro-3-[5-(2-methoxy-ethoxy)-1H-pyrrolo[2,3-b]pyridine-3-carbonyl]-phenyl}-4-trifluoromethyl-benzenesulfonamide]
≤ 10 µM: [1] | [2] | [3]

COCCOc1ccc(-c2cnc3[nH]cc(C(=O)c4c(F)ccc(NS(=O)(=O)c5ccc(C(F)(F)F)cc5)c4F)c3c2)cc1 [Compound P-2013, N-(2,4-Difluoro-3-{5-[4-(2-methoxy-ethoxy)-phenyl]-1H-pyrrolo[2,3-b]pyridine-3-carbonyl}-phenyl)-4-trifluoromethyl-benzenesulfonamide]
≤ 10 µM: [1] | [2] | [3]

COc1cc(NC(=O)Nc2cccc(C(=O)c3c[nH]c4ncccc34)c2)cc(C(F)(F)F)c1 [Compound P-1762, 1-(3-Methoxy-5-trifluoromethyl-phenyl)-3-[3-(1H-pyrrolo[2,3-b]pyridine-3-carbonyl)-phenyl]-urea]
≤ 10 µM: [1] | [2] | [3]

O=C(Nc1cccc(F)c1)Nc1cccc(C(=O)c2c[nH]c3ncc(-c4ccc(F)cc4)cc23)c1 [Compound P-1819, 1-(3-Fluoro-phenyl)-3-{3-[5-(4-fluoro-phenyl)-1H-pyrrolo[2,3-b]pyridine-3-carbonyl]-phenyl}-urea]
≤ 10 µM: [1] | [2] | [3]

O=C(Nc1cccc(C(=O)c2c[nH]c3ncccc23)c1)Nc1ccc(C(F)(F)F)c(Cl)c1 [Compound P-1766, 1-(3-Chloro-4-trifluoromethyl-phenyl)-3-[3-(1H-pyrrolo[2,3-b]pyridine-3-carbonyl)-phenyl]-urea]
≤ 10 µM: [1] | [2] | [3]

COc1cnc2[nH]cc(Cc3c(F)ccc(OCc4ccccc4)c3F)c2c1 [Compound P-1804, 3-(3-Benzyloxy-2,6-difluoro-benzyl)-5-methoxy-1H-pyrrolo[2,3-b]pyridine]
≤ 10 µM: [1] | [2] | [3]

O=C(c1c(F)ccc(NS(=O)(=O)c2cc3ccccc3s2)c1F)c1c[nH]c2ncc(Cl)cc12 [Compound P-1799, Benzo[b]thiophene-2-sulfonic acid [3-(5-chloro-1H-pyrrolo[2,3-b]pyridine-3-carbonyl)-2,4-difluoro-phenyl]-amide]
≤ 10 µM: [1] | [2] | [3]

CN(C)c1ccc(NC(=O)Nc2cccc(C(=O)c3c[nH]c4ncccc34)c2)cc1 [Compound P-1780, 1-(4-Dimethylamino-phenyl)-3-[3-(1H-pyrrolo[2,3-b]pyridine-3-carbonyl)-phenyl]-urea]
≤ 10 µM: [1] | [2] | [3]

CCCCOc1ccc(NC(=O)Nc2cccc(C(=O)c3c[nH]c4ncccc34)c2)cc1 [Compound P-1715, 1-(4-Butoxy-phenyl)-3-[3-(1H -pyrrolo[2,3-b]pyridine-3-carbonyl)-phenyl]-urea]
≤ 10 µM: [1] | [2] | [3]

O=C(c1c(F)ccc(NS(=O)(=O)c2ccc(C(F)(F)F)cc2)c1F)c1c[nH]c2ncc(-c3ccc(Cl)cc3)cc12 [Compound P-1670]
≤ 10 µM: [1] | [2] | [3]

O=C(Nc1ccc(F)cc1)Nc1cccc(C(=O)c2c[nH]c3ncc(-c4ccc(F)cc4)cc23)c1 [Compound P-1816, 1-(4-Fluoro-phenyl)-3-{3-[5-(4-fluoro-phenyl)-1H-pyrrolo[2,3-b]pyridine-3-carbonyl]-phenyl}-urea]
≤ 10 µM: [1] | [2] | [3]
